Test results reported in paper PMC9166766 (Experimental & Molecular Medicine, 2022).
No end group written: not given here.

Tests used:
Assay type in all cases: cell-based
[1] = tested on: Jurkat T cells (T-cell activation gene mRNA); experiment: Real-time quantitative PCR of activated Jurkat T cells; conditions: PMA and ionomycin; for NINJ1 and ZP4 expression upon T-cell activation: Supplementary Fig. 5a, b
Text: We collected Jurkat T cells with QIAzol Lysis Reagent (Qiagen) to extract total RNA. We reverse transcribed cDNAs from isolated RNA using AMV Reverse Transcriptase and random hexamers. We performed real-time quantitative PCR for each cDNA using TB Green® Premix Ex Taq™ (TaKaRa, Kusatsu, Japan) on a CFX Connect Real-time PCR Detection System (Bio-Rad, Hercules, CA, USA) and normalized the expression to that of 18 S rRNA or GAPDH.
The experiment was independently repeated at least three times, and the data are presented as the mean ± standard deviation. Statistical differences were determined using two-tailed Student’s t-test. *p < 0.05, **p < 0.01, ***p < 0.001, NC negative control.

[2] = tested on: tNFATC2 nuclear import; experiment: Nuclear localization of EGFP-tNFATC2 by confocal microscopy in Jurkat T cells; conditions: 40 nM PMA and 1 μM ionomycin 4 h, FK506 0.5 μM, n = 10-12
Procedure: We transfected Jurkat T cells with the pCAG-EGFP-tNFATC2-IRES-mCherry-peptide by electroporation. After two days, we pretreated these cells with 0.5 μM FK506 for 30 min. Then, we treated them with 40 nM PMA and 1 μM ionomycin under culture conditions for 4 h. Before imaging by a confocal laser scanning microscope (Nikon, Tokyo, Japan), we treated the cells with 10 μg/ml Hoechst 33342 (Invitrogen, Waltham, MA, USA) to stain nuclei. Colocalization analysis of mCherry and Hoechst was performed with ImageJ and its plugin JACoP to measure the Manders coefficient[23],[24].
Scale bar, 50 μm e Nuclear-localized tNFATC2 was measured by calculating the colocalization ratio between Hoechst (M1) and EGFP (M2).

[3] = tested on: NFATC2 dephosphorylation; experiment: NFAT mobility shifting assay in Jurkat T cells; conditions: HA-mCherry-tagged peptides, PMA and ionomycin 2 h, n = 7
Procedure: Jurkat T cells expressing GST-tagged peptides were treated with PMA and ionomycin for activation. […] For dephosphorylation of NFATC2, Jurkat T cells were treated with PMA and ionomycin for 2 h. c Hyper- and hypophosphorylated NFATC2 of b was measured using ImageJ, and the hypo/hyper ratio was calculated (n = 7). d Snapshot images of the activated Jurkat T cells expressing the indicated peptides and tNFATC2 were obtained using confocal microscopy. The expression and localization of peptides and tNFATC2 are shown as mCherry (red) and EGFP (green), respectively. Nuclei were stained with Hoechst (blue). Scale bar, 50 μm e Nuclear-localized tNFATC2 was measured by calculating the colocalization ratio between Hoechst (M1) and EGFP (M2). […] Statistical differences were determined using a two-tailed Student’s t-test (a, c) or one-way ANOVA (e). ***p < 0.001, NC negative control.

[4] = tested on: calcineurin (CNA) phosphatase activity; experiment: Calcineurin cellular activity assay in Jurkat T cells; conditions: HA-mCherry-tagged peptides, PMA and ionomycin
Procedure: We measured calcineurin phosphatase activity in vitro using a calcineurin phosphatase assay kit (BML-AK804, Enzo Life Sciences, Farmingdale, NY, USA). We incubated GST or GST-tagged peptides with CNA for 30 min at room temperature and then followed the manufacturer’s instructions. To measure endogenous calcineurin phosphatase activity, we transiently transfected Jurkat T cells with CAG-HA-mCherry-peptides by electroporation. After 24 h, we pretreated the Jurkat T cells with FK506 for 1 h before activating them with PMA and ionomycin. Next, we washed the cells with TBS buffer (20 mM Tris, pH 7.2, 150 mM NaCl), resuspended them with lysis buffer from the calcineurin cellular activity assay kit (BML-AK816, Enzo Life Sciences), and kept them on ice for 30 min. We collected the lysate supernatant and removed free phosphate by gel filtration using the Desalting Column Resin included in the kit. Next, we followed the manufacturer’s instructions.
Jurkat T cells expressing only HA-mCherry were used as a negative control, and cells treated with FK506 were used as a positive control. d In vitro calcineurin phosphatase activity assays using purified GST-tagged peptides. Purified GST was used as a negative control. […] Statistical differences were determined using one-way ANOVA. *p < 0.05, NS nonsignificant, NC negative control.

Molecule | NINJ1 and ZP4 expression upon T-cell activation [1] | RNA levels of T-cell activation genes (qRT-PCR) vs VIVIT peptide ([1]; at least three repeats) | proportion of nuclear-localized tNFATC2 [2] | NFATC2 dephosphorylation / band shift [3] | calcineurin phosphatase activity in cells [4]
CABIN1-L-1-2: 10 amino acids from proline 2146 to proline 2155 of full-length CABIN1; expressed GST-, GAL4 DBD- or HA-mCherry-tagged (PEITVTPPTP; also: expressed GST-, GAL4 DBD- or HA-mCherry-tagged, end not given here) | unaffected | reduced the RNA levels of these genes more efficiently than the VIVIT peptide | slightly higher | significantly inhibited the NFATC2 band shift | did not
C=CC[C@@H]1/C=C(\C)C[C@H](C)C[C@H](OC)[C@H]2O[C@@](O)(C(=O)C(=O)N3CCCC[C@H]3C(=O)O[C@H](/C(C)=C/[C@@H]3CC[C@@H](O)[C@H](OC)C3)[C@H](C)[C@@H](O)CC1=O)[C@H](C)C[C@@H]2OC [FK506, reference compound] | repressed |  | lowest | inhibited the NFATC2 band shift | decreased the phosphatase activity of CNA
